Measured values from patent publication US12516056B2, “Compounds for inhibition of janus kinase 1” (MANKIND PHARMA LTD., priority 2019, dated 2026).

Legend:
Recombinant TYK2 = biological target: T1, Recombinant TYK2 (Homo sapiens, UniProt P29597); experiment: JAK biochemical assay (LANCE Ultra TR-FRET), TYK2; conditions: recombinant TYK2, TR-FRET; read-out: Biochemical Assay (μM) TYK2
T1 construct: purchased Carna Biosciences
Procedure, shortened: (§1)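 Kinase reactions ran in buffer of 50 mM HEPES pH 7.5 with 1 mM EGTA, 10 mM MgCl2, 2 mM DTT and 0.01% Tween-20, using recombinant enzyme. Phosphorylated ULight substrate was detected by TR-FRET, and compound effect expressed as % inhibition against vehicle.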

[1] = tested on: STAT3 phosphorylation by IL-6 in TF-1 cells; experiment: JAK cellular assay: STAT3 phosphorylation by IL-6 in TF-1 cells (HTRF); type: cell-based; conditions: Homo sapiens, TF-1, TF-1 cells, IL-6 30 ng/ml, pSTAT3 HTRF; read-out: Cell Based Assay (μM) TF-1/IL-6/pSTAT3
Procedure, shortened: (§2)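 TF-1 cells starved overnight in low-serum OptiMEM, then 120,000/well in RPMI, preincubated with compound 30 min at 37 °C (0.2% DMSO final). Stimulation 20 min with IL-6 30 ng/ml (pSTAT3) or GMCSF 5 ng/ml (pSTAT5); lysate phospho-STAT by HTRF, unstimulated background subtracted.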

[2] = tested on: STAT5 phosphorylation by GMCSF in TF-1 cells; experiment: JAK cellular assay: STAT5 phosphorylation by GMCSF in TF-1 cells (HTRF); type: cell-based; conditions: Homo sapiens; TF-1 cells, GMCSF 5 ng/ml, pSTAT5 HTRF; read-out: Cell Based Assay (μM) TF-1/GMCSF/pSTAT5
Procedure, shortened: as §2

Recombinant JAK2 = biological target: T2, Recombinant JAK2 (Homo sapiens, UniProt O60674); experiment: JAK biochemical assay (LANCE Ultra TR-FRET), JAK2; conditions: recombinant JAK2, TR-FRET; read-out: Biochemical Assay (μM) JAK2
T2 construct: purchased Carna Biosciences
Procedure, shortened: as §1

Recombinant JAK3 = biological target: T3, Recombinant JAK3 (Homo sapiens, UniProt P52333); experiment: JAK biochemical assay (LANCE Ultra TR-FRET), JAK3; conditions: recombinant JAK3, TR-FRET; read-out: Biochemical Assay (μM) JAK3
T3 construct: purchased Carna Biosciences
T3 sequence (P52333 1-1124): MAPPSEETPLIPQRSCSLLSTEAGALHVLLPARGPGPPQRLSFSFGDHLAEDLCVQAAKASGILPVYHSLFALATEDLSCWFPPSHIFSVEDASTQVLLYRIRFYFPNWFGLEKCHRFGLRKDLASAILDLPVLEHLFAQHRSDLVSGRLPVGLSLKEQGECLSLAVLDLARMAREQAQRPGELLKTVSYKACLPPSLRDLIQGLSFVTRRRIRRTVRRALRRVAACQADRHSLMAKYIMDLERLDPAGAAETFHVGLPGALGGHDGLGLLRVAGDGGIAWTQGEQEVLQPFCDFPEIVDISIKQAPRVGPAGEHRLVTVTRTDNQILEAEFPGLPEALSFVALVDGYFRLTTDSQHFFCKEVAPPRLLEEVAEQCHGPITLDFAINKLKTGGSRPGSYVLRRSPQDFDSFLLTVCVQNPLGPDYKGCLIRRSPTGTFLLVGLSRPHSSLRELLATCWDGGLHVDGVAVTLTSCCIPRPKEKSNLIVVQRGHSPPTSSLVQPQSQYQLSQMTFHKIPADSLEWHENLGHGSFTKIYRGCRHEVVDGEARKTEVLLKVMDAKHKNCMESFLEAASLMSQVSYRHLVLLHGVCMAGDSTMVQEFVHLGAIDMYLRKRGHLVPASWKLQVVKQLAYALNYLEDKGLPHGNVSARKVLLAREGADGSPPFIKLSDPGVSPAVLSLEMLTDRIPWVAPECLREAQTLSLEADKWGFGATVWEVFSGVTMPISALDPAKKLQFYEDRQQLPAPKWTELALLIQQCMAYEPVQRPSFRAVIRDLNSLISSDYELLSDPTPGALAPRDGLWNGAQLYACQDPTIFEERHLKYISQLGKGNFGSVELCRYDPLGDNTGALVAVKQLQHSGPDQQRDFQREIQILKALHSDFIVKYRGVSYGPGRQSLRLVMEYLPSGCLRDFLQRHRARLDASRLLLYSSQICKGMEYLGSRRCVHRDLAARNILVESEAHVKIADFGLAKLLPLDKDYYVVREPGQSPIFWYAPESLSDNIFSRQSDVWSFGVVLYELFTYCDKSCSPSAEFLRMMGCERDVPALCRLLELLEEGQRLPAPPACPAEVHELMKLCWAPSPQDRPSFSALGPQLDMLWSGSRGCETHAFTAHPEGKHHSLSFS
Procedure, shortened: as §1

Recombinant JAK1 = biological target: T4, Recombinant JAK1 (Homo sapiens, UniProt P23458); experiment: JAK biochemical assay (LANCE Ultra TR-FRET), JAK1; conditions: recombinant JAK1, TR-FRET; read-out: Biochemical Assay (μM) JAK1
T4 construct: purchased Carna Biosciences
Procedure, shortened: as §1

T1 sequence (P29597 whole entry): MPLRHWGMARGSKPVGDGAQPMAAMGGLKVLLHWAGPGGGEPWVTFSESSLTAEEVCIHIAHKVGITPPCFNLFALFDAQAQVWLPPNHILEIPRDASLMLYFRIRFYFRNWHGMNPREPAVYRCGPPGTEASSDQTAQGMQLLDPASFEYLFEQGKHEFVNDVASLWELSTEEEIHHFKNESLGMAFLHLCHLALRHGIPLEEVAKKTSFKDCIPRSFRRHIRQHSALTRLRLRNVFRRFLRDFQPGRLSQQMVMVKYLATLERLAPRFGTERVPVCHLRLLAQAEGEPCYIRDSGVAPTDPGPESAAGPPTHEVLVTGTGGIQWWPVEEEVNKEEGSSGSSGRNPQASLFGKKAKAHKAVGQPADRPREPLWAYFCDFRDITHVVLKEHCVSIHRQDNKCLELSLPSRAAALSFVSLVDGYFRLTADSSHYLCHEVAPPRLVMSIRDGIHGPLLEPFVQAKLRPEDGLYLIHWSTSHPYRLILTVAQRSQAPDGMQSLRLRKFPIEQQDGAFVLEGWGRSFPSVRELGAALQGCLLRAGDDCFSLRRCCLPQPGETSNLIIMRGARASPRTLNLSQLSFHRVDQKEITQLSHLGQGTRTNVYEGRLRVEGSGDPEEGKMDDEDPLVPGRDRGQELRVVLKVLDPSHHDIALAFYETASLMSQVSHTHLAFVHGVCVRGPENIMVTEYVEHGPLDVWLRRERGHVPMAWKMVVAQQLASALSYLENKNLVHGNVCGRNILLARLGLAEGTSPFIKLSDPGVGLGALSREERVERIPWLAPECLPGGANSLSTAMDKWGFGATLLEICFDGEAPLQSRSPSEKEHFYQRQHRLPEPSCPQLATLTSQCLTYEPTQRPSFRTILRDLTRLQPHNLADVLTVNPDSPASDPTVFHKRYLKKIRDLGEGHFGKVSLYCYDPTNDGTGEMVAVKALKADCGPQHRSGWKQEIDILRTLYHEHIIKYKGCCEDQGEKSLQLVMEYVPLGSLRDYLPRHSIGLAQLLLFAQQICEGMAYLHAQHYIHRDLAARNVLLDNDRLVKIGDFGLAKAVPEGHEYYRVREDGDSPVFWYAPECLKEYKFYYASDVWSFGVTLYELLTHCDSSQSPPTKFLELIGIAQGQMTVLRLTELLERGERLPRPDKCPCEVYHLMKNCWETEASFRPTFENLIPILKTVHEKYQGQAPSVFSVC
T4 sequence (P23458 whole entry): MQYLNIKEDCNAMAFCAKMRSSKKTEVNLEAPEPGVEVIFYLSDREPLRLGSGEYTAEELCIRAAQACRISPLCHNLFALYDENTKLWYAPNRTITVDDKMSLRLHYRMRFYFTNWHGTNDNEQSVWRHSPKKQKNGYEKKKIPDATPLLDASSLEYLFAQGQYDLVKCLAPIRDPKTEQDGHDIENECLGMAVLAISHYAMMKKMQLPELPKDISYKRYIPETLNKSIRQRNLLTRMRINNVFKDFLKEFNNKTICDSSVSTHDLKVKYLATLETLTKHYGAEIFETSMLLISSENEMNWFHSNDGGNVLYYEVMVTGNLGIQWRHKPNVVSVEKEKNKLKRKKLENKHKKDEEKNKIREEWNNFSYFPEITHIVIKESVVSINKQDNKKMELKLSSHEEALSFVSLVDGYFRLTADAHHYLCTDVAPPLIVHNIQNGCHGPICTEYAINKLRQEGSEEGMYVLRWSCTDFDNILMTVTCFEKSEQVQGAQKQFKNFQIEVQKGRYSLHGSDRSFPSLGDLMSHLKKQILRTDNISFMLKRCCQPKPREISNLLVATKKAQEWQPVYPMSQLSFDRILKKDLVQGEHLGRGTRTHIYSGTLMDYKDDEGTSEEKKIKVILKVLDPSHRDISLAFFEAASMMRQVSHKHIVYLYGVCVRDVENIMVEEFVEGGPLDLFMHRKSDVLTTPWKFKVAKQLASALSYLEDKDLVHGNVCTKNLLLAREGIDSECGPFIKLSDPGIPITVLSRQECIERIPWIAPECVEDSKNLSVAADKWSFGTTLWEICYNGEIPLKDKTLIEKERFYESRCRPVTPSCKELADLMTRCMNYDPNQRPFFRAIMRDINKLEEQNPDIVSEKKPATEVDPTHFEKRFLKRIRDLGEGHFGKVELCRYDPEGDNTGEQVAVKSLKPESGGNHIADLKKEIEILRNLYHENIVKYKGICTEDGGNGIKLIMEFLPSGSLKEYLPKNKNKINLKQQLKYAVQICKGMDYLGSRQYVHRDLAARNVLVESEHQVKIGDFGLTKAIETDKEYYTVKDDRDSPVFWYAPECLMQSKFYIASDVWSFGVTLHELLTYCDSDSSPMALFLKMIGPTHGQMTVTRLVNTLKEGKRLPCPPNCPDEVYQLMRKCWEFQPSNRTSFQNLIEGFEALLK
T2 sequence (O60674 whole entry): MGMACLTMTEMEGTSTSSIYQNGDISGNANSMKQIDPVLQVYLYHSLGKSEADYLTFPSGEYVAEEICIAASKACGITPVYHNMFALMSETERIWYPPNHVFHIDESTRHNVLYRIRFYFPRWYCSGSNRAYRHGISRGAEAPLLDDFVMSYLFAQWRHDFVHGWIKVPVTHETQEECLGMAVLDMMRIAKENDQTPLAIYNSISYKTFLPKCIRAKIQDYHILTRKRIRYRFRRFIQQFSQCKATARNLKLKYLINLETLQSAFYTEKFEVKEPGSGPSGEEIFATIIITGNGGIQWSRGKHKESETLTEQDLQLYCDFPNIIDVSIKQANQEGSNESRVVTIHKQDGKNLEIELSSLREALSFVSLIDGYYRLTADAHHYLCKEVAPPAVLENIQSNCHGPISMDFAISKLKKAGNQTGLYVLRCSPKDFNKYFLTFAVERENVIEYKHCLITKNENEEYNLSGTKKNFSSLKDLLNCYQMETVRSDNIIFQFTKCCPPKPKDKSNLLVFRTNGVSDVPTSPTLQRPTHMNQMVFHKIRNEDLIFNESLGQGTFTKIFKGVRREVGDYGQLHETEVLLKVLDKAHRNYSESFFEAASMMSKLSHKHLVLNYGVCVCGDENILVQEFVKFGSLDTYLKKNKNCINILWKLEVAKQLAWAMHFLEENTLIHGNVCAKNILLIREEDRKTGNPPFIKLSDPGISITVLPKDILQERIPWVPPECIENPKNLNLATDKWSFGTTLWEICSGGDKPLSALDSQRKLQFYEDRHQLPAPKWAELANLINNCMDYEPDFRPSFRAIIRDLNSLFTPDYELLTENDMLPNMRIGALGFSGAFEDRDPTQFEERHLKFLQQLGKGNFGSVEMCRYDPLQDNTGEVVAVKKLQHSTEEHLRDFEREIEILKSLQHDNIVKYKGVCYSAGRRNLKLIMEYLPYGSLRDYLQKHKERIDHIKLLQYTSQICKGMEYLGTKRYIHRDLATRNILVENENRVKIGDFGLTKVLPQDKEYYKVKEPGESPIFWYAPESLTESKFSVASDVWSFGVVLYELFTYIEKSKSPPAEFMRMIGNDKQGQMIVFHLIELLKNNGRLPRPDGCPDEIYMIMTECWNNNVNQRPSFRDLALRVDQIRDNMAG

| IC50 (Recombinant TYK2) | IC50 [1] | IC50 [2] | IC50 (Recombinant JAK2) | IC50 (Recombinant JAK3) | IC50 (Recombinant JAK1) | Structure (SMILES) |
| --- | --- | --- | --- | --- | --- | --- |
| > 1 µM | > 1 µM | > 10 µM | > 0.1 µM | > 0.1 µM | > 0.05 µM | FC(F)(F)C(Cl)c1ccc(-n2cc(-c3ccnc4[nH]cnc34)cn2)nc1 (stereo not drawn) [Example 1120, 7-(1-(5-(1-chloro-2,2,2-trifluoroethyl)pyridin-2-yl)-1H-pyrazol-4-yl)-3H-imidazo[4,5-b]pyridine] |
| > 1 µM | > 1 µM | 10 µM | > 0.5 µM | > 0.1 µM | > 0.1 µM | N#CCC(c1ccc(-n2cc(-c3ccnc4[nH]cnc34)cn2)nc1)C(F)(F)F (stereo not drawn) [Example 1123, 3-(6-(4-(3H-imidazo[4,5-b]pyridin-7-yl)-1H-pyrazol-1-yl)pyridin-3-yl)-4,4,4-trifluorobutanenitrile] |
| > 1 µM | > 1 µM | > 10 µM | > 1 µM | > 1 µM | > 0.5 µM | COC(c1ccc(-n2cc(-c3ccnc4[nH]cnc34)cn2)nc1)(C1CC1)C(F)(F)F (stereo not drawn) [Example 1127, 7-(1-(5-(1-cyclopropyl-2,2,2-trifluoro-1-methoxyethyl)pyridin-2-yl)-1H-pyrazol-4-yl)-3H-imidazo[4,5-b]pyridine] |
| > 1 µM | > 1 µM | > 10 µM | > 0.5 µM | > 0.5 µM | < 0.1 µM | CC(F)(c1ccc(-n2cc(-c3ccnc4[nH]cnc34)cn2)nc1)C(F)(F)F (stereo not drawn) [Example 1128, 7-(1-(5-(1,1,1,2-tetrafluoropropan-2-yl)pyridin-2-yl)-1H-pyrazol-4-yl)-3H-imidazo[4,5-b]pyridine] |
| > 1 µM | > 1 µM | > 10 µM | > 0.1 µM | > 0.1 µM | > 0.1 µM | OC(c1ccc(-n2cc(-c3ccnc4[nH]cnc34)cn2)nc1)(C1CCCCC1)C(F)(F)F (stereo not drawn) [Example 1130, 1-(6-(4-(3H-imidazo[4,5-b]pyridin-7-yl)-1H-pyrazol-1-yl)pyridin-3-yl)-1-cyclohexyl-2,2,2-trifluoroethanol] |
| < 0.1 µM | > 1 µM | > 10 µM | < 0.1 µM | < 0.1 µM | < 0.1 µM | OC(c1ccc(-n2cc(-c3ccnc4[nH]cnc34)cn2)nc1)(C1CCNCC1)C(F)(F)F (stereo not drawn) [Example 1135, 1-(6-(4-(3H-imidazo[4,5-b]pyridin-7-yl)-1H-pyrazol-1-yl)pyridin-3-yl)-2,2,2-trifluoro-1-(piperidin-4-yl)ethan-1-ol] |
| > 1 µM | > 1 µM | > 10 µM | > 0.1 µM | > 0.1 µM | < 0.1 µM | CS(=O)(=O)CC(c1ccc(-n2cc(-c3ccnc4[nH]cnc34)cn2)nc1)C(F)(F)F (stereo not drawn) [Example 1138, 7-(1-(5-(1,1,1-trifluoro-3-(methylsulfonyl)propan-2-yl)pyridin-2-yl)-1H-pyrazol-4-yl)-3H-imidazo[4,5-b]pyridine] |
| > 1 µM | < 1 µM | > 10 µM | < 0.1 µM | < 0.1 µM | < 0.1 µM | NS(=O)(=O)CCC(c1ccc(-n2cc(-c3ccnc4[nH]cnc34)cn2)nc1)C(F)(F)F (stereo not drawn) [Example 1141, 3-(6-(4-(3H-imidazo[4,5-b]pyridin-7-yl)-1H-pyrazol-1-yl)pyridin-3-yl)-4,4,4-trifluorobutane-1-sulfonamide] |
| > 0.5 µM | < 1 µM | > 10 µM | < 0.1 µM | < 0.1 µM | < 0.1 µM | N#CCOC(c1ccc(-n2cc(-c3ccnc4[nH]cnc34)cn2)nc1)C(F)(F)F (stereo not drawn) [Example 1157, 2-(1-(6-(4-(3H-imidazo[4,5-b]pyridin-7-yl)-1H-pyrazol-1-yl)pyridin-3-yl)-2,2,2-trifluoroethoxy)acetonitrile] |
| > 1 µM | > 1 µM | > 1 µM | > 0.1 µM | > 0.1 µM | < 0.1 µM | CC(c1ccc(-n2cc(-c3ccnc4[nH]cnc34)cn2)nc1)S(C)(=O)=O (stereo not drawn) [Example 1158, 7-(1-(5-(1-(methylsulfonyl)ethyl)pyridin-2-yl)-1H-pyrazol-4-yl)-3H-imidazo[4,5-b]pyridine] |
| > 10 µM | 10 µM | > 10 µM | 0.3 µM | 0.173 µM | 0.096 µM | O=C(NCC(F)(F)F)C(c1ccc(-n2cc(-c3ccnc4[nH]cnc34)cn2)nc1)C1CC1 (stereo not drawn) [Example 1167, 2-(6-(4-(3H-imidazo[4,5-b]pyridin-7-yl)-1H-pyrazol-1-yl)pyridin-3-yl)-2-cyclopropyl-N-(2,2,2-trifluoroethyl)acetamide] |
| > 1 µM | > 10 µM | > 10 µM | > 0.1 µM | > 0.05 µM | > 0.1 µM | OC(c1cccc(-n2cc(-c3ccnc4[nH]cnc34)cn2)n1)C(F)(F)F (stereo not drawn) [Example 1170, 1-(6-(4-(3H-imidazo[4,5-b]pyridin-7-yl)-1H-pyrazol-1-yl)pyridin-2-yl)-2,2,2-trifluoroethanol] |
| > 1 µM | > 10 µM | > 10 µM | > 1 µM | > 1 µM | > 1 µM | COC(c1cccc(-n2cc(-c3ccnc4[nH]cnc34)cn2)n1)C(F)(F)F (stereo not drawn) [Example 1171, 7-(1-(6-(2,2,2-trifluoro-1-methoxyethyl)pyridin-2-yl)-1H-pyrazol-4-yl)-3H-imidazo[4,5-b]pyridine] |
| > 1 µM | 10 µM | > 10 µM | < 0.1 µM | < 0.1 µM | < 0.1 µM | OC(c1ccc(-n2cc(-c3ccnc4[nH]cnc34)cn2)cn1)C(F)(F)F (stereo not drawn) [Example 1173, 1-(5-(4-(3H-imidazo[4,5-b]pyridin-7-yl)-1H-pyrazol-1-yl)pyridin-2-yl)-2,2,2-trifluoroethanol] |
| > 0.5 µM | > 10 µM | > 10 µM | < 0.5 µM | > 1 µM | > 1 µM | N#CC1CCN(C(=O)n2cc(-c3ccnc4[nH]cnc34)cn2)C1 (stereo not drawn) [Example 1177, 1-(4-(3H-imidazo[4,5-b]pyridin-7-yl)-1H-pyrazole-1-carbonyl)pyrrolidine-3-carbonitrile] |
| < 1 µM | > 1 µM | > 1 µM | < 1 µM | < 1 µM | < 1 µM | N#CCC(C1CCCC1)n1cc(-c2ccnc3[nH]c(-c4ccccc4)nc23)cn1 (stereo not drawn) [Example 1180, 3-cyclopentyl-3-(4-(2-phenyl-3H-imidazo[4,5-b]pyridin-7-yl)-1H-pyrazol-1-yl)propanenitrile] |
| > 1 µM | 1 µM | > 1 µM | > 0.5 µM | > 0.1 µM | > 0.1 µM | OC(Cc1ccc(-n2cc(-c3ccnc4[nH]cnc34)cn2)nc1)C(F)(F)F (stereo not drawn) [Example 1183, 3-(6-(4-(3H-imidazo[4,5-b]pyridin-7-yl)-1H-pyrazol-1-yl)pyridin-3-yl)-1,1,1-trifluoropropan-2-ol] |
| > 1 µM | > 1 µM | > 1 µM | > 0.1 µM | < 0.1 µM | < 0.1 µM | CS(=O)(=O)NC(c1ccc(-n2cc(-c3ccnc4[nH]cnc34)cn2)nc1)C(F)(F)F (stereo not drawn) [Example 1187] |
